Reference: patent US11078193B2 (priority 2014, dated 2021)
pEC50: −log10 of the molar value.

Assays:
[1] = Cytotoxicity, HepG2 cells, Resazurin assay; format: cell-based; details: human
[2] = system: HBV; assay: anti HBV activity, HepG2.117 inducibly HBV producing cell line (Tet-off), intracellular HBV DNA by realtime PCR; format: cell-based; details: Hepatitis B virus, 72 h, HepG2.117 cells, 3 days of treatment

Question: For `C[C@@H](NS(=O)(=O)c1cn(C)c(C(=O)Nc2ccnc(Br)c2F)c1Cl)C(C)(F)F` [Compound 148, N-(2-bromo-3-fluoro-4-pyridyl)-3-chloro-4-[[(1R)-2,2-difluoro-1-methyl-propyl]sulfamoyl]-1-methyl-pyrrole-2-carboxamide], which CC50 at 4 days [1] is on record?
Answer: > 25000 nM

Question: And the pEC50 [2]?
Answer: 7.70

Question: For `Cc1cc(NC(=O)c2c(Cl)c(S(=O)(=O)N[C@H](C)C(C)(F)F)cn2C)cc(Cl)n1` [Compound 149, 3-chloro-N-(2-chloro-6-methyl-4-pyridyl)-4-[[(1R)-2,2-difluoro-1-methyl-propyl]sulfamoyl]-1-methyl-pyrrole-2-carboxamide], which CC50 at 4 days [1] is on record?
Answer: > 25000 nM

Question: What about the pEC50 [2] of the same compound?
Answer: 7.22

Question: For `C[C@@H](NS(=O)(=O)c1cn(C)c(C(=O)Nc2ccnc(C(F)(F)F)c2)c1Cl)C(C)(F)F` [Compound 150, 3-chloro-4-[[(1R)-2,2-difluoro-1-methyl-propyl]sulfamoyl]-1-methyl-N-[2-(trifluoromethyl)-4-pyridyl]pyrrole-2-carboxamide], which CC50 at 4 days [1] is on record?
Answer: > 25000 nM

Question: What about the pEC50 [2] of the same compound?
Answer: 7.05

Question: For `C[C@@H](NS(=O)(=O)c1cn(C)c(C(=O)Nc2ccnc(C#N)c2F)c1Cl)C(C)(F)F` [Compound 151, 3-chloro-N-(2-cyano-3-fluoro-4-pyridyl)-4-[[(1R)-2,2-difluoro-1-methyl-propyl]sulfamoyl]-1-methyl-pyrrole-2-carboxamide], which CC50 at 4 days [1] is on record?
Answer: > 25000 nM

Question: What about the pEC50 [2] of the same compound?
Answer: 7.52

Question: Which results are given for `C[C@@H](NS(=O)(=O)c1cn(C)c(C(=O)Nc2ccnc(Br)c2F)c1F)C(F)(F)F` [Compound 153, N-(2-bromo-3-fluoro-4-pyridyl)-3-fluoro-1-methyl-4-[[(1R)-2,2,2-trifluoro-1-methyl-ethyl]sulfamoyl]pyrrole-2-carboxamide]?
Answer: CC50 at 4 days [1]: > 25000 nM; pEC50 [2]: 7.70

Question: For `C[C@@H](NS(=O)(=O)c1cn(C)c(C(=O)Nc2ccnc(C#N)c2F)c1F)C(F)(F)F` [Compound 155, N-(2-cyano-3-fluoro-4-pyridyl)-3-fluoro-1-methyl-4-[[(1R)-2,2,2-trifluoro-1-methyl-ethyl]sulfamoyl]pyrrole-2-carboxamide], which CC50 at 4 days [1] is on record?
Answer: > 25000 nM

Question: What about the pEC50 [2] of the same compound?
Answer: 7.70

Question: For `C[C@@H](NS(=O)(=O)c1cn(C)c(C(=O)Nc2ccc(F)c(C#N)n2)c1Cl)C(F)(F)F` [Compound 156, 3-chloro-N-(6-cyano-5-fluoro-2-pyridyl)-1-methyl-4-[[(1R)-2,2,2-trifluoro-1-methyl-ethyl]sulfamoyl]pyrrole-2-carboxamide], which CC50 at 4 days [1] is on record?
Answer: > 25000 nM

Question: What about the pEC50 [2] of the same compound?
Answer: 6.85

Question: With `Cc1cc(NC(=O)c2c(F)c(S(=O)(=O)N[C@H](C)C(C)(F)F)cn2C)cc(Br)n1` [Compound 157, N-(2-bromo-6-methyl-4-pyridyl)-4-[[(1R)-2,2-difluoro-1-methyl-propyl]sulfamoyl]-3-fluoro-1-methyl-pyrrole-2-carboxamide] as the compound, how does the CC50 at 4 days [1] read?
Answer: > 25000 nM

Question: What about the pEC50 [2] of the same compound?
Answer: 7.05

Question: Which CC50 at 4 days [1] does the source give for `Cn1cc(S(=O)(=O)NC2(C)CC(F)(F)C2)c(Cl)c1C(=O)Nc1ccnc(Br)c1F` [Compound 161, N-(2-bromo-3-fluoro-4-pyridyl)-3-chloro-4-[(3,3-difluoro-1-methyl-cyclobutyl)sulfamoyl]-1-methyl-pyrrole-2-carboxamide] here?
Answer: > 25000 nM

Question: And the pEC50 [2]?
Answer: 8.00

Question: For `Cc1cc(NC(=O)c2c(Cl)c(S(=O)(=O)NC3(C)CC(F)(F)C3)cn2C)cc(F)n1` [Compound 163, 3-chloro-4-[(3,3-difluoro-1-methyl-cyclobutyl)sulfamoyl]-N-(2-fluoro-6-methyl-4-pyridyl)-1-methyl-pyrrole-2-carboxamide], which CC50 at 4 days [1] is on record?
Answer: > 25000 nM

Question: And the pEC50 [2]?
Answer: 7.70

Question: For `Cc1cc(NC(=O)c2c(F)c(S(=O)(=O)NC3(C(F)(F)F)CCC3)cn2C)cc(Br)n1` [Compound 164, N-(2-bromo-6-methyl-4-pyridyl)-3-fluoro-1-methyl-4-[[1-(trifluoromethyl)cyclobutyl]sulfamoyl]pyrrole-2-carboxamide], which CC50 at 4 days [1] is on record?
Answer: > 25000 nM

Question: What about the pEC50 [2] of the same compound?
Answer: 7.40

Question: Which results are given for `Cn1cc(S(=O)(=O)NC2(C(F)(F)F)CCC2)c(F)c1C(=O)Nc1ccnc(C(F)F)c1F` [Compound 165, N-[2-(difluoromethyl)-3-fluoro-4-pyridyl]-3-fluoro-1-methyl-4-[[1-(trifluoromethyl)cyclobutyl]sulfamoyl]pyrrole-2-carboxamide]?
Answer: CC50 at 4 days [1]: > 25000 nM; pEC50 [2]: 8.52

Question: Which CC50 at 4 days [1] does the source give for `Cn1cc(S(=O)(=O)NC2(C(F)(F)F)CCC2)c(F)c1C(=O)Nc1ccnc(Br)c1F` [Compound 166, N-(2-bromo-3-fluoro-4-pyridyl)-3-fluoro-1-methyl-4-[[1-(trifluoromethyl)cyclobutyl]sulfamoyl]pyrrole-2-carboxamide] here?
Answer: > 25000 nM

Question: And the pEC50 [2]?
Answer: 8.52

Question: What does the source list for `Cn1cc(S(=O)(=O)NC2(C(F)(F)F)CCC2)c(F)c1C(=O)Nc1ccnc(C#N)c1F` [Compound 167, N-(2-cyano-3-fluoro-4-pyridyl)-3-fluoro-1-methyl-4-[[1-(trifluoromethyl)cyclobutyl]sulfamoyl]pyrrole-2-carboxamide]?
Answer: CC50 at 4 days [1]: > 25000 nM; pEC50 [2]: 8.30

Question: What does the source list for `Cn1cc(S(=O)(=O)NC2(C(F)(F)F)CCC2)c(F)c1C(=O)Nc1cc(F)nc(F)c1` [Compound 168, N-(2,6-difluoro-4-pyridyl)-3-fluoro-1-methyl-4-[[1-(trifluoromethyl)cyclobutyl]sulfamoyl]pyrrole-2-carboxamide]?
Answer: CC50 at 4 days [1]: > 25000 nM; pEC50 [2]: 8.22

Question: For `Cn1cc(S(=O)(=O)NC2(C(F)(F)F)CCC2)c(F)c1C(=O)Nc1ccnc(F)c1` [Compound 169, 3-fluoro-N-(2-fluoro-4-pyridyl)-1-methyl-4-[[1-(trifluoromethyl)cyclobutyl]sulfamoyl]pyrrole-2-carboxamide], which CC50 at 4 days [1] is on record?
Answer: > 25000 nM

Question: What about the pEC50 [2] of the same compound?
Answer: 7.52

Question: Which CC50 at 4 days [1] does the source give for `Cn1cc(S(=O)(=O)NC2(C(F)(F)F)CCC2)c(F)c1C(=O)Nc1ccnc(F)c1F` [Compound 170, N-(2,3-difluoro-4-pyridyl)-3-fluoro-1-methyl-4-[[1-(trifluoromethyl)cyclobutyl]sulfamoyl]pyrrole-2-carboxamide] here?
Answer: > 25000 nM

Question: What about the pEC50 [2] of the same compound?
Answer: 7.40

Question: With `Cc1cc(NC(=O)c2c(F)c(S(=O)(=O)NC3(C(F)(F)F)CCC3)cn2C)cc(C#N)n1` [Compound 171, N-(2-cyano-6-methyl-4-pyridyl)-3-fluoro-1-methyl-4-[[1-(trifluoromethyl)cyclobutyl]sulfamoyl]pyrrole-2-carboxamide] as the compound, how does the CC50 at 4 days [1] read?
Answer: > 25000 nM

Question: What about the pEC50 [2] of the same compound?
Answer: 7.00

Question: For `Cc1cc(NC(=O)c2c(F)c(S(=O)(=O)NC3(C(F)(F)F)CCC3)cn2C)cc(C(F)F)n1` [Compound 173, N-[2-(difluoromethyl)-6-methyl-4-pyridyl]-3-fluoro-1-methyl-4-[[1-(trifluoromethyl)cyclobutyl]sulfamoyl]pyrrole-2-carboxamide], which CC50 at 4 days [1] is on record?
Answer: > 25000 nM

Question: What about the pEC50 [2] of the same compound?
Answer: 7.70

Question: Which CC50 at 4 days [1] does the source give for `Cn1cc(S(=O)(=O)NC2(C(F)(F)F)CCOCC2)c(Cl)c1C(=O)Nc1ccnc(Cl)c1` [Compound 180, 3-chloro-N-(2-chloro-4-pyridyl)-1-methyl-4-[[4-(trifluoromethyl)tetrahydropyran-4-yl]sulfamoyl]pyrrole-2-carboxamide] here?
Answer: > 25000 nM

Question: What about the pEC50 [2] of the same compound?
Answer: 6.20

Question: For `C[C@@H](NS(=O)(=O)c1cn(C)c(C(=O)Nc2ccc(F)c(C#N)n2)c1C#N)C(F)(F)F` [Compound 181, 3-cyano-N-(6-cyano-5-fluoro-2-pyridyl)-1-methyl-4-[[(1R)-2,2,2-trifluoro-1-methyl-ethyl]sulfamoyl]pyrrole-2-carboxamide], which CC50 at 4 days [1] is on record?
Answer: > 25000 nM

Question: And the pEC50 [2]?
Answer: 6.00
